In a melting point compilation (Tetko et al.; mined from patent text by program, amines drawn as free bases though some values may be those of a salt):

`CN(C)CCN1C(=O)N2[C@H](c3cccc(O)c3)c3[nH]c4ccc(Cl)cc4c3C[C@@]2(C)C1=O` (racemic) showed a melting point of 283 to 286 °C.
`CCCCCCCCCCCCCC(=O)O[C@H](CCCCCCCCCCC)CC(=O)O` showed a melting point of 28 to 29 °C.
In the case of `CCN1CCCC1CNC(=O)c1cc(OCC(F)(F)F)ccc1OCC(F)(F)F` (centres undefined), the melting point is reported as 78 to 80 °C.
For `O=C1CC(=O)N(c2ccccc2)c2cc(Cl)ccc2N1Cc1ccccc1`, the melting point was 173 to 175 °C.
For `c1ccc(CCOc2c3c(nc4ccccc24)CCN(Cc2ccccc2)CC3)cc1`, the melting point was under 20 °C.
In the case of `CCOC(=O)CS(=O)(=O)c1ccc(C=C(C)c2ccc3c(c2)C(C)(C)CCC3(C)C)cc1`, the melting point is reported as 117 to 118 °C.
With `CN(C)c1ccc(NC(=O)c2cc3cc([Si](C)(C)C)ccc3n2Cc2cccc(F)c2)cn1` the melting point was 204 to 205 °C.
`CSCC[C@@H](NC(=O)OC(C)(C)C)C(=O)Oc1c(Cl)c(Cl)c(Cl)c(Cl)c1Cl` showed a melting point of 133 to 134 °C.
`CCOC(=O)CCc1ccccc1CNC(=O)C1Cc2ccccc2N1S(=O)(=O)c1ccc(-c2cccc(C(F)(F)F)c2)cc1` (centres undefined) showed a melting point of 48 °C.
In the case of `CCN1CCCC1=NC(=O)Nc1cccc(Cl)c1`, the melting point is reported as 122 to 124 °C.
For `Clc1cnc(Cl)c2cc(Br)ccc12`, the melting point was 134 to 135 °C.
With `CS(=O)(=O)NC(=O)C1(CCCCCCCCCCCCC2(C(=O)O)CC2)CC1` the melting point was 97.5 to 99.4 °C.
Molecule `Nc1cccc(C(=O)c2ccc(Cl)cc2)c1` has a melting point of 114 to 115 °C.
In the case of `N#Cc1c(Cl)nc(OCC(F)(F)F)nc1N1CCc2ccccc2CC1`, the melting point is reported as 165 to 167 °C.
Molecule `O=C(O)Cc1ccc(NC(=O)C(COc2cccc(Cl)c2)NS(=O)(=O)c2ccc(Br)cc2)cc1` (racemic) has a melting point of 225 to 228 °C.
`CC(=O)c1cccc(C2=C(c3ccc(S(N)(=O)=O)cc3)OC(C)(C)C2=O)c1` showed a melting point of 217 to 218 °C.
With `O=C1c2ccccc2C(=O)N1c1cccc(Br)c1` the melting point was 176 to 179 °C.
Molecule `CC(=O)c1ccc(Nc2ccccc2)cc1` has a melting point of 105 °C.
In the case of `O=C(Cl)c1cn(CCCCl)c(=O)c2cc(Cl)ccc12`, the melting point is reported as 125 °C.
In the case of `OC1CCCc2nc3ccccc3c(NCCCOc3ccccc3)c21` (centres undefined), the melting point is reported as 138 to 140 °C.
With `Cc1cccc(-c2cccc(-c3nc(C)cc(Cl)n3)n2)c1` the melting point was 105 °C.
`O=Cc1cc(N2CCN(Cc3ccccc3)CC2)ccc1O` gave a melting point of 101 to 103 °C.
With `O=[N+]([O-])c1cccc(Sc2ccc(-c3ccc(Br)cc3)s2)c1` the melting point was 120 to 122 °C.
For `COc1ncccc1C(=O)NCCc1ccc(CC(=O)O)cc1`, the melting point was 157 to 158 °C.
With `O=C(O)c1cc(S(=O)(=O)N2CCCC(OCc3ccccc3)C2)ccc1Cl` (centres undefined) the melting point was 173 to 174 °C.
`NC(=O)[C@@H]1[C@H](Nc2c(Br)cnc3[nH]c(-c4ccc(N5CCOCC5)nc4)nc23)[C@H]2C=C[C@@H]1C2` showed a melting point of 288 to 290 °C.
`C=C(C)OC1CCC(=O)N1S(=O)(=O)c1ccccc1` (centres undefined) showed a melting point of 54 to 56 °C.
Molecule `CCOC(=O)c1cnc(CCOC)nc1NCc1ccc(-c2ccccc2-c2nnn[nH]2)cc1` has a melting point of 122 to 124 °C.
For `CC(C)NC(=O)c1ccn2nc(-c3ccccc3)c(-c3ccc(=O)n(C(C)C)n3)c2c1`, the melting point was 230 to 232 °C.
Work on `CC=CC(=O)Oc1cc(C)nc(C(Cl)(Cl)Cl)n1` yielded a melting point of 55 °C.
`COc1ccc(Cn2nc(-n3cnn(Cc4ccc(F)cc4)c3=O)cc2C(=O)O)cc1` showed a melting point of 205 to 207 °C.
Molecule `Oc1ccc(-c2nc3ccccc3nc2-c2ccc(O)cc2)cc1` has a melting point of 336 to 338 °C.
For `O=C1C=C(c2c[nH]c3ccc(Br)cc23)C(=O)N1`, the melting point was 268 °C.
With `CCOC(=O)c1cnc2sc3c(c2c1O)CCCC3` the melting point was 138 to 140 °C.
In the case of `CN(c1nc2cc(NC(=O)OC(C)(C)C)ccn2n1)C1CC1`, the melting point is reported as 323 °C.
In the case of `NC(=O)Cc1ccc(OCC(O)CN2CCCC(Cn3c(=O)[nH]c4cc(Cl)c(Cl)cc43)C2)cc1` (centres undefined), the melting point is reported as 148 °C.
Molecule `CC(c1oc2ccc(Br)cc2c(=O)c1-c1ccccc1)n1cnc2c(N)ncnc21` (centres undefined) has a melting point of 230 to 231 °C.
In the case of `CC(C)C(=O)Nc1cn(-c2cncc(F)c2)nc1C=O`, the melting point is reported as 140 to 142 °C.
With `Cc1ccccc1C(=O)Nc1ccc(C(=O)N2CCS(=O)(=O)c3ccccc32)cc1` the melting point was 219 to 220 °C.
`Cn1c(=O)n(CC2CO2)n(CC2CO2)c1=O` (centres undefined) gave a melting point of 115 to 116 °C.
Work on `CN(CCO)C(=O)c1c(-c2ccc(C(C)(C)C)cc2)n(C)n(-c2ccc(C#N)cc2)c1=O` yielded a melting point of 210 to 213 °C.
`CC1CN(C)CC=C1C(=O)N1c2ccccc2NC(=O)c2ccccc21` (centres undefined) gave a melting point of 223 to 224 °C.
`Cn1nc(-c2ccc(S(C)(=O)=O)cc2)c(-c2ccc(F)cc2)c1C(F)(F)F` gave a melting point of 166 to 169 °C.
In the case of `CC(=O)OCCc1ccc(-c2ccc(=O)[nH]n2)cc1`, the melting point is reported as 186 °C.
`Cc1c2c(c(C)c3c1NC(C)C3)OC(C)(C)C2` (centres undefined) gave a melting point of 87 to 88 °C.
`CC(C)Oc1ncnc2c(O)ccc(Cl)c12` gave a melting point of 126 °C.
In the case of `Cc1c(Sc2cccnc2)sc2ccc(Br)cc12`, the melting point is reported as 86 to 87 °C.
`CNC(=O)CC(C)(C)c1ccc(C(=O)Nc2cn3cc(Cl)ccc3n2)cc1` gave a melting point of 228 to 230 °C.
`Cn1c(=O)nc(-c2ccccc2)c2cc(Cl)ccc21` gave a melting point of 224 °C.
